Measurements taken from patent publication US9155740B2, “Compositions and methods for treatment and prevention of hyperuricemia related health consequences” (priority 2004, dated 2015).

Assays:
[1] = tested on: cultured bovine endothelial cells; conditions: cited from earlier work
[2] = tested on: Rat Aortic Artery (AA) segments; test: Acetylcholine-induced vasorelaxation of rat aortic artery segments; conditions: uric acid 0-15 mg/dl; acetylcholine 5 μM; U-46619 0.5 μM
Description: Vasorelaxation of rat Aortic Artery (AA) segments: Rat AA segments (1-0.5 mm diameter×3-4 mm length) were isolated from the 2- to 3- month-old rats, AA segments were suspended in individual organ chambers (Radnoti Four-Unit Tissue Bath System) with 5 ml in Earl's solution, oxygenated with 95% O2 and 5% CO2 at 37° C. After 1 hr equilibration of resting force of 1.5 g, vascular smooth muscle cell or endothelium integrity in this AA segment was confirmed by monitoring 0.5 μM U-46619 (a thromboxane A2 mimetic, sigma)-mediated AA contraction or acetylcholine (5 μM)-mediated vasodilation, respectively. After washing several times, the segments were incubated with various concentration of uric acid (0-15 mg/dl ) in organ bath chamber for 30 min. Stable construction was induced by 0.5 μM U-46619 for 10 min prior to acetylcholine-induced vasorelaxation. The vascular tensions were continuously monitored with an isometric force transducer (Harvard Apparatus, Holliston, Mass.). To standardize the data, U-46619-induced stable increase in vascular tone was set as 100%.

[3] = tested on: endothelial function; conditions: infusion into forearm vein, immediately after infusion; cited from earlier work
[4] = tested on: fructose fed rats; test: 60% dextrose vs 60% fructose diet, pair-fed, lowering uric acid with benzbromarone; type: in vivo, rat; conditions: 4 weeks
Description: Comparison between 60% dextrose and 60% fructose on the development of metabolic syndrome and the effect of lowering uric acid with Benzbromarone: Rats were pair-fed with 60% dextrose diet or 60% fructose diet for 4 weeks, which are isocaloric. […] At 4 weeks, total food intake per animal was calculated from the food left over. Total food intake is the subtraction of the left-over food from total administered food (1425 g/rat/28days). In addition to the above two groups, a third group of fructose fed rats were administered BZ. Body weight was measured weekly. At 4 weeks, after 5 h fasting, insulin, triglyceride and uric acid were measured. All protocols were approved by the Animal Care Committee of the University of Florida.
(§1) Measurements: Systolic blood pressure was assessed as the mean value of 3 consecutive measurements obtained in the morning using a tail-cuff sphygmomanometer (Visitech BP2000, Visitech Systems, Inc., Apex, N.C.). All animals were preconditioned for blood pressure measurements 1 wk before each experiment. Serum uric acid was measured by uricase method. Blood glucose was measured with the ONE TOUCH system (Johnson&Johnson, Milpitas, Calif.). Rat insulin was measured by ELISA (Crystal Chem. Inc., Chicago, Ill.). Insulin sensitivity index was calculated using the formula of Matsuda and DeFronzo (10,000/square root of [fasting glucose×fasting insulin]×[mean glucose×mean insulin during OGTT]), which is highly correlated (r=0.73, p<0.0001) with rate of whole-body glucose disposal during the euglycemic insulin clamp (Matsuda M and DeFronzo R A, Insulin sensitivity indices obtained from oral glucose tolerance testing: comparison with the euglycemic insulin clamp, Diabetes Care 22: 1462-1470, 1999). Serum lipids were measured with an autoanalyzer (VETAce, Alfa Wassermann Inc, West Caldwell, N.J.) or Triglyceride-SL assay kit (Diagnostic chemicals Limited, Charlottetown, PE, Canada).

[5] = tested on: fructose-fed rats; test: Treatment of fructose-induced hyperuricemia with allopurinol; type: in vivo, rat; conditions: for body weight: treatment study, p=NS
From the text: Treatment of fructose-induced hyperuricemia with allopurinol: Male Sprague-Dawley rats (150-200 g) were housed in standard conditions and fed control (n=7) or 60% fructose diet (Harlan, Madison, Wis., n=14) for 10 weeks. “Control diet” contains 46% carbohydrate, which is mainly composed of starch whereas the fructose diet contained 60% fructose as the carbohydrate. The caloric content of these diets are 3.1 kcal/g and 3.6 kcal/g, respectively. At 4 weeks, blood sample were obtained at 11 am in the morning after 4 h fasting. Half of the fructose-fed rats were administered allopurinol (AP, 150 mg/L in the drinking water) (Sigma, St. Louis, Mo.) for an additional 6 weeks to lower serum uric acid. Fresh drinking water containing allopurinol was replaced every 2 days. Rats were divided into 3 groups: Control; Fructose (Fr); and Fr+AP. At 10 weeks an oral glucose tolerance test was performed, in which rats were fasted overnight (16 hours), and then administered 1.5 g/kg OGTT (50% glucose solution) by gavage. Blood was sampled at 0, 30, 60, 120 min for blood glucose and serum insulin measurement. Rats were then sacrificed.
as §1
(§2) Statistical analysis. All values presented are expressed as mean±SD and analyzed by one-way analysis of variance (ANOVA) or by unpaired Student's t test. Significance was defined as p<0.05.

[6] = tested on: Male Sprague-Dawley rats; test: Oxonic acid-induced hyperuricemia in rats, serum uric acid, NOx and blood pressure; type: in vivo, rat
Description: Male Sprague-Dawley rats were housed in standard conditions and fed normal diets. Hyperuricemia was induced with an uricase inhibitor, oxonic acid (OA; 750 mg/kg/day), by gavage, with control rats receiving vehicle. Allopurinol (AP) was used to block hyperuricemia by placing AP in the drinking water (150 mg/L). Rats were divided into four groups: (1) Control, (2) AP only, (3) OA only, and (4) OA+AP. Systolic blood pressure was measured using a tail-cuff sphygmomanometer. The amount of drinking water consumed and changes in body weight were noted. Rats were sacrificed at one and seven days. Serum was analyzed for uric acid concentration and nitrites/nitrates (NOx) by chemiluminescence method. (Prabhakar SS: Inhibition of mesangial iNOS by reduced extracellular pH is associated with uncoupling of NADPH oxidation. Kidney Int 61:2015-2024, 2002). Statistical analysis between subgroups was performed using ANOVA.

[7] = tested on: fructose-fed rats; test: Prevention of fructose-induced hyperuricemia with allopurinol; type: in vivo, rat
Description: […] Three groups (control, Fr, and Fr+AP; n=8 each) were designed for this prevention study. Body weight was measured every 2 weeks. Food consumption was measured for 3 days at 8 weeks.
as §1, §2

[8] = tested on: diabetic C57BL6 and eNOS KO mice; test: Streptozotocin diabetic C57BL6 and eNOS KO mice with insulin treatment; type: in vivo, mouse
Description: Experiments were performed following protocol approval by the Animal Care and Use Committee of the University of Florida (IACUC). C57B1/6J mice (C57BL6) and C57BL/6JNos3tm1Unc (eNOS KO mice) (Jackson Laboratory, Bar Harbor, Me.) aged 8 weeks were rendered diabetic with intraperitoneal injections of streptozotocin (STZ) (100 mg/kg/day for 2 consecutive days) freshly dissolved in 0.1M citrate buffer (pH 4.5). Development of diabetes (defined by blood glucose greater than 250 mg/dL) was verified 1 week after the first STZ injection with ONE TOUCH system (Johnson & Johnson, Milpitas, Calif.). For blood sugar control, a single insulin pellet (Linshin Canada Inc, Ontario, Canada) was implanted subcutaneously for 5 months. Blood glucose was monitored every 2 weeks and if the fasting blood glucose was >200 mg/dl, an additional insulin pellet was inserted. Mice were housed in the animal care facility with 12-hour light/dark cycle and allowed free access to food and water. Body weight was recorded monthly. At 3 and 5 months, mice were euthanized for histological analysis. A total of 6 groups were examined with 10 mice for each group at starting points. Non-diabetic (non-DM), diabetic (DM), and diabetic mice (C57BL6 and eNOS KO) with insulin treatment (DMIns) were examined. Systolic blood pressure was assessed as the mean value of 5-10 consecutive measurements obtained in the morning using a tail-cuff sphygmomanometer (Visitech BP2000, Visitech Systems, Inc., Apex, N.C.). BUN was measured by BUN assay (Diagnostic chemicals limited, PE, Canada). Urine in bladder was obtained for urinary albumin excretion at sacrifice. Albumin-to-Creatinine ratio was measured with Albuwell M (Exocell Inc., Philadelphia, Pa.) and Liquid Creatinine Assay (Bioquant, San Diego, Calif.), respectively.
Kidneys were fixed in Fekete's fixative (mixture of ethanol, distilled water, 37% formalin and glacial acetic acid), and embedded in paraffin. 2-μm sections were stained with the periodic acid-Schiff reagent (PAS) or the periodic acid-methenamine silver (PAM) and counterstained with hematoxylin. Indirect immunoperoxidase staining was performed using antibodies to the endothelial antigen, thrombomodulin (TM) (Yuzawa Y, Brentjens J R, Brett J, Caldwell P R, Esposito C, Fukatsu A, Godman G, Stern D, Andres G: Antibody-mediated redistribution and shedding of endothelial antigens in the rabbit. J Immunol 150: 5633-5646, 1993) or CD34 (BD Pharmingen, San Jose, Calif.) (Fina L, Molgaard H V, Robertson D, Bradley N J, Monaghan P, Delia D, Sutherland D R, Baker M A, Greaves M F: Expression of the CD34 gene in vascular endothelial cells. Blood 75: 2417-2426, 1990), and to vascular smooth muscle cells with anti-smooth muscle actin (Abcam, Cambridge, Mass.). To detect endothelial cell proliferation, double immunostaining was performed with an antibody to the […], Ki67 (Abcam, Cambridge, Mass.) and thrombomodulin. Color was developed using DAB as a chromogen. In double staining, Bjoran Purple (BioCare Medical, Concord, Calif.) was used for thrombomodulin.
All quantifications were performed in a blinded fashion. Using coronal sections of the kidney, all glomeruli (100-200 of glomeruli per each animal) were examined. Glomerular mesangial expansion, mesangiolysis, and nodular lesions were evaluated. The percentage of mesangiolysis was calculated as the number of glomeruli with mesangiolysis divided by that of total glomeruli. Arteriolar morphology was assessed by indirect peroxidase immunostaining for alpha-smooth muscle actin. […] Afferent arteriolar wall thickness was measured by computer image analysis. For each arteriole, the outline of the vessel and its internal lumen (excluding the endothelium) were generated by using computer analysis to calculate the total wall area (outline-inline) in a minimum of 12 arterioles. Vessels that were cross-sectioned or not sectioned transversally, providing an asymmetrical wall, were excluded from the present study. […]

[9] = wildtype and eNOS knockout mice

With `O=c1[nH]c(=O)c2[nH]c(=O)[nH]c2[nH]1` [uric acid] as the molecule, how does the NO levels [1] read?
Its NO levels is “potently reduce NO levels”.

And the “vasorelaxation of aortic arterial rings in response to acetylcholine” value [2]?
Its value is “dose-dependently blocked”.

What about the “endothelial function measured by brachial artery reactivity” value [3] of the same molecule?
The value was “does not impair endothelial function”.

Which results are given for `CCc1oc2ccccc2c1C(=O)c1cc(Br)c(O)c(Br)c1` [benzbromarone, Benzbromarone]?
hyperinsulinemia [4]: significantly improved; hypertriglyceridemia [4]: significantly improved; hyperuricemia [4]: significantly improved

With `Oc1ncnc2[nH]ncc12` [Allopurinol, allopurinol] as the molecule, how does the serum uric acid ([5]; AP 150 mg/L drinking water for 6 weeks from week 4 of fructose diet) read?
Its serum uric acid is “effective at lowering uric acid”.

And the “insulin sensitivity (index)” value ([5]; OGTT at 10 weeks)?
The value was “improved insulin sensitivity”.

What about the “hypertriglyceridemia (serum triglycerides)” value ([5]; fructose-fed rats) of the same molecule?
The value was “abolished”.

And the “urinary excretion of uric acid” value ([5]; fructose-fed rats, 9 weeks)?
The value was “prevented the reduced excretion of uric acid”.

And the fasting hyperinsulinemia ([5]; fructose-fed rats, 10 weeks)?
The fasting hyperinsulinemia was “reversed”.

And the systolic blood pressure ([5]; fructose-fed rats, remained higher than control)?
Its systolic blood pressure is “significantly reduced”.

What about the postprandial hyperinsulinemia ([5]; oral glucose tolerance test at 10 weeks) of the same molecule?
The postprandial hyperinsulinemia was “partially but significantly lower”.

What about the body weight ([5]; 10 weeks) of the same molecule?
The body weight was 474 ± 37 g.

And the systolic blood pressure ([6]; 7 days, OA vs OA/AP, p=NS)?
Its systolic blood pressure is 147±11 mm Hg.

And the “change in NOx concentration” value ([6]; rats treated with AP alone)?
Its value is “did not show a significant change”.

And the “change in serum UA” value ([6]; rats treated with AP alone)?
Its value is “did not show a significant change”.

What about the “elevation of uric acid by fructose diet” value ([7]; allopurinol given simultaneously with fructose diet, over the 6 week period) of the same molecule?
Its value is “prevented”.

What about the fasting insulin levels ([7]; compared to fructose-fed rats, 8 weeks) of the same molecule?
The fasting insulin levels was “significantly lower”.

And the development of hypertriglyceridemia ([7]; prevention study)?
Its development of hypertriglyceridemia is “completely prevented”.

What about the final weight ([7]; prevention study, 8 weeks) of the same molecule?
The final weight was 426 ± 26 g.

Which “reduction of serum NOx in hyperuricemic rats” value ([6]; at both 1 day and 7 days, vs control) does the source give for `O=C(O)c1nc(=O)[nH]c(=O)[nH]1` [OA, oxonic acid] here?
Its value is 40-50%.

Which results are given for insulin?
development of mesangial expansion ([8]; 3 and 5 months): blocked; development of mesangiolysis ([8]; 3 and 5 months): blocked; development of the nodular lesions ([8]; 3 and 5 months): blocked; blood glucose levels ([8]; both wildtype and eNOS knockout mice): significant improvements; up-regulation of VEGF mRNA expression ([8]; diabetic C57BL6 and eNOS KO mice, whole kidney): blocked; increase in inner lumen size of afferent arteriole ([8]; diabetic eNOS KO mice): blocked; increase in endothelial cell proliferation and number ([8]; diabetic mice, renal cortex): largely corrected; blood pressure ([8]; eNOS knockout mice): significantly improved; survival ([8]; eNOS knockout mice, 5 months): significantly improved; development of proteinuria [8, 9]: prevented; development of renal dysfunction [8, 9]: prevented; development of renal hypertrophy [8, 9]: prevented

What does the source list for `O=C(CO)[C@@H](O)[C@H](O)[C@H](O)CO` [Fr, fructose]?
body weight ([5]; 10 weeks): 522 ± 57 g; final weight ([7]; prevention study, 8 weeks): 456 ± 24 g
